Measurements taken from patent publication US20040204488A1, “S-[2-[(1-Iminoethyl)amino]ethyl]-2-methyl-L-cysteine maleate crystalline salt” (priority 2003, published 2004).

Columns and labels:
Format in all cases: physicochemical
physchem [1] = settings: water
Moisture sorption = settings: 90% R.H. and 25° C.
Source text: The novel salt is characterized by some or all of the following physical measurements: elemental analysis (such as by combustion analysis), melting point and heat of fusion (differential scanning calorimetry and thermogravimetric analysis), refractive indices (polarized light microscopy), x-ray powder diffraction pattern, moisture sorption (for example, DVS moisture balance) and vibrational signature (Raman spectrum).
FIG. 12 is a plot of a moisture sorption study of S-[2-[(1-Iminoethyl)amino]ethyl]-2-methyl-L-cysteine maleate.

[2] = Solution stability of anion-exchange titration samples by HPLC (Example 8); settings: fractions of resin titration
Procedure: (§1) Cation exchange column cuts containing approximately 0.9 g of S-[2-[(1-Iminoethyl)amino]ethyl]-2-methyl-L-cysteine di-hydrochloride in 142 ml HCl/water solution, were concentrated on a rotary evaporator at 60° C. to an oil. To the oil, diluted to 60 ml with deionized water, was added aliquots of 0.5 g of washed anion exchange resin while stirring. At five minutes after each aliquot of resin was added, the solution pH was measured and a sample removed through a syringe filter. A total of 9 g of anion exchange resin was added. The final pH was 10.8. The resin was removed by filtration and the filtrate was concentrated to an oil by rotary evaporation at 60° C.; no solids formed. The starting material, final filtrate and all intermediate samples were assayed by HPLC and ion chromatography for chloride.
3.3 g a sample containing about 1 g of S-[2-[(1-Iminoethyl)amino]ethyl]-2-methyl-L-cysteine di-hydrochloride was diluted to 20 g. Aliquots of prewashed Amberlite IRA400 (OH) resin was added to the solution and samples were periodically withdrawn through a syringe filter. […] The starting materials, intermediate samples and final filtrate were analyzed. […] Samples were drawn at pH of 8.13 and 1.63 and analyzed by HPLC.
In the repeat of the above experiment, the resulting samples were analyzed by HPLC. […]

[3] = Pseudo-titration in water with IRA-400(OH) anion exchange resin (pH vs resin added)
Procedure: 60 g of Amberlite IRA400 (OH) resin was prewashed with 4.7 percent (by weight) ammonium hydroxide (50 ml of 28 percent ammonium hydroxide, 250 ml deionized water), followed by extensive washing with deionized water. The final conductivity was 6.1 μS.
as §1
The diamond (solid line) is pH and square (dashed line) is S-[2-[(1-Iminoethyl)amino]ethyl]-2-methyl-L-cysteine (percent initial, by ion chromatography). […] The diamond (solid line) is pH and triangle (broken line) is chloride (by ion chromatography).
These curves are not true titration curves since samples were withdrawn during the progress of the reaction, and since true equilibrium was not attained before the increments of resin were added. Nevertheless, the graphs of FIG. 2 and FIG. 3 illustrate the expected trends. As resin is added to the S-[2-[(1-Iminoethyl)amino]ethyl]-2-methyl-L-cysteine solution the pH rises with change in slope around pH's of 2, 9 and 11. The pH's of slower rise are representative of the pK's of the carboxylic acid, amine and amidine functional groups, respectively. Above a pH of 10, the S-[2-[(1-Iminoethyl)amino]ethyl]-2-methyl-L-cysteine concentration in solution decreases. At this point, the S-[2-[(1-Iminoethyl)amino]ethyl]-2-methyl-L-cysteine is gaining a net negative charge and is binding to the resin. […]

physchem [4] = settings: pKa of amidine ion
Source text: The parent S-[2-[(1-Iminoethyl)amino]ethyl]-2-methyl-L-cysteine molecule has 3 ionizable groups and can exist in 4 ionization states.
At low pH, the molecule exists as a +2 charged free acid, with the carboxylic acid, amine and amidine moieties protonated. This is the ionization state for the dihydrochloride salt. The initial lots of S-[2-[(1-Iminoethyl)amino]ethyl]-2-methyl-L-cysteine (dihydrochloride) contained around 0.3 eq of excess HCl.
As the pH is increased, the carboxylic acid group is the first group to deprotonate, and this produces a net charge on the molecule of +1. If the pH increase is generated by addition of sodium hydroxide to S-[2-[(1-Iminoethyl)amino]ethyl]-2-methyl-L-cysteine, the sodium dihydrochloride salt is formed. If the increase in pH is due to removal of chloride ions by anion exchange processing, the product is the monohydrochloride salt with no sodium.
A positive charge still resides on the amidine, and a negative charge still resides on the carboxyl group. If such material is made by the addition of sodium hydroxide to the dihydrochloride, the resulting product is the monohydrochloro sodium salt, mixed with one equivalent of sodium chloride. The material prepared by the anion exchange resin approach is the free zwitterion.
Further increases in pH lead to deprotonation of the amidine ion (pKa ˜12.5). […]

SMILES | solubility (physchem [1]) [mg/mL] | water absorbed by weight (Moisture sorption) | degradation of titration fractions by HPLC [2] | pH of slower rise representative of pK of amidine group [3] | pH of slower rise representative of pK of amine group [3] | pH of slower rise representative of pK of carboxylic acid group [3] | pKa (physchem [4])
CC(=N)NCCSC[C@](C)(N)C(=O)O.O=C(O)/C=C\C(=O)O [S-[2-[(1-Iminoethyl)amino]ethyl]-2-methyl-L-cysteine maleate] | > 230 | less than one percent |  |  |  |  | 
CC(=N)NCCSC[C@](C)(N)C(=O)O [S-[2-[(1-Iminoethyl)amino]ethyl]-2-methyl-L-cysteine] |  |  | no degradation | ~11 | ~9 | ~2 | ~12.5
